Here are results for 8 compounds from patent publication CN112159318A, “一种具有抗病毒活性的大叶桉酮及其制备方法和用途” (Kunming Institute of Botany of CAS, priority 2020, dated 2021).

The structures appear in SMILES notation. “Also recorded” adds a separate entry of the source.

Series [1] deals with NS5 methyltransferase [NS5甲基转移酶]. The conditions noted are these: NS5 methyltransferase inhibitors; cited from earlier work.
The test system of series [2] is ZIKV SZ-WIV01. Kind of series: Plaque assay, ZIKV SZ-WIV01 in Vero cells. The series is classed as cell-based, Zika virus. The conditions noted are these: for EC50: Zika virus, Vero, 96 h.
For another series, the system named is ZIKV MR766. The series can be described thus: Plaque assay, ZIKV MR766 in Vero cells. It counts as cell-based. The settings on record: Zika virus, 96 h.
The test system of series [3] is Zika virus [寨卡病毒]. The settings on record: cited from earlier work.
Series [4] relates to viral RNA polymerase [病毒RNA聚合酶]. The settings on record: adenosine analogue; cited from earlier work.
The subject of series [5] is Zika virus [寨卡病毒]. The settings on record: cited from earlier work. The source holds these as a separate data set.
Series [6] can be described thus: MTT cytotoxicity in Vero cells. The series is classed as cell-based, African green monkey. The settings on record: monkey.
For a further series, the system named is Vero cells [Vero细胞]. Kind of series: MTT cytotoxicity in Vero cells. It counts as cell-based, African green monkey. The conditions noted are these: Vero CC50 relative to anti-ZIKV EC50; strain not stated.
Series [7] concerns ZIKV SZ-WIV01. Kind of series: qRT-PCR of ZIKV RNA in supernatant of infected Vero cells. The series is classed as cell-based, Zika virus. The conditions noted are these: ZIKV SZ-WIV01 500 PFU, 3.125-25 μM, 48 h.
The test system of series [8] is ZIKV MR766 E protein [ZIKV E蛋白]. Kind of series: Western blot of ZIKV E protein expression. The conditions noted are these: 48 h. It counts as cell-based, Zika virus.
In series [9] the test system is ZIKV SZ-WIV01. The series can be described thus: Immunofluorescence of ZIKV E protein positive Vero cells. The series is classed as cell-based, Zika virus. The settings on record: ZIKV SZ-WIV01 MOI=1, 50 μM, 48 h, vs DMSO.
In series [10] the test system is ZIKV. The series can be described thus: qRT-PCR of ZIKV replication in A549 cells. The series is classed as cell-based, Zika virus. The conditions noted are these: human A549 cells, 0.4-50 μM. (Real-time PCR tracks product formation cycle by cycle.)
In series [11] the test system is ZIKV. The series can be described thus: qRT-PCR of ZIKV replication in Huh-7 cells. The series is classed as cell-based, Zika virus. The conditions noted are these: human Huh-7 cells, 0.4-50 μM.
The test system of series [12] is ZIKV SZ-WIV01. The series can be described thus: Adsorption (binding) assay, qRT-PCR of ZIKV on Vero cell surface. It counts as cell-based, Zika virus. The conditions noted are these: ZIKV SZ-WIV01 MOI=1, 50 μM, 4°C, 1 h, vs DMSO.
The test system of series [13] is ZIKV. The series can be described thus: Internalization of ZIKV into host cells. The series is classed as cell-based, Zika virus.
The test system of a further series is AXL. Kind of series: Flow cytometry of AXL expression on Vero cell surface. The series is classed as cell-based, African green monkey. The conditions noted are these: Vero cells, 50 μM, 37°C 1 h, then ZIKV SZ-WIV01 MOI=1, 1 h. On the technique in general: Flow cytometry measures light scatter and fluorescence of single cells or particles in a stream.
The subject of series [14] is ZIKV SZ-WIV01. The series can be described thus: Time-of-addition assay, qRT-PCR, Vero cells. The conditions noted are these: ZIKV SZ-WIV01 MOI=1, 50 μM. The series is classed as cell-based, Zika virus.
Series [15] concerns the target T1, RNA-dependent RNA polymerase (RdRp) of ZIKV NS5 [ZIKV的RNA依赖的RNA聚合酶(RdRp)] (Zika virus, UniProt Q32ZE1).
T1 construct: 1μg ZIKV NS5载体共转染到HEK-293T细胞中; expressed in transfected cells; host or cells: HEK-293T
The series can be described thus: ZIKV NS5 RdRp activity, Gluc reporter in NS5-expressing HEK-293T cells. The settings on record: 24 h. The series is classed as cell-based.

Series [16] concerns Gluc luciferase [荧光素酶Gluc]. The series can be described thus: Gluc activity in HEK-293T cells expressing only Gluc (counter-test). The series is classed as cell-based.
The subject of another series is ZIKV NS5. Kind of series: Western blot of NS5 expression in HEK-293T cells. The settings on record: 24 h. The series is classed as cell-based, Zika virus.

T1 sequence (Q32ZE1 2517-3419): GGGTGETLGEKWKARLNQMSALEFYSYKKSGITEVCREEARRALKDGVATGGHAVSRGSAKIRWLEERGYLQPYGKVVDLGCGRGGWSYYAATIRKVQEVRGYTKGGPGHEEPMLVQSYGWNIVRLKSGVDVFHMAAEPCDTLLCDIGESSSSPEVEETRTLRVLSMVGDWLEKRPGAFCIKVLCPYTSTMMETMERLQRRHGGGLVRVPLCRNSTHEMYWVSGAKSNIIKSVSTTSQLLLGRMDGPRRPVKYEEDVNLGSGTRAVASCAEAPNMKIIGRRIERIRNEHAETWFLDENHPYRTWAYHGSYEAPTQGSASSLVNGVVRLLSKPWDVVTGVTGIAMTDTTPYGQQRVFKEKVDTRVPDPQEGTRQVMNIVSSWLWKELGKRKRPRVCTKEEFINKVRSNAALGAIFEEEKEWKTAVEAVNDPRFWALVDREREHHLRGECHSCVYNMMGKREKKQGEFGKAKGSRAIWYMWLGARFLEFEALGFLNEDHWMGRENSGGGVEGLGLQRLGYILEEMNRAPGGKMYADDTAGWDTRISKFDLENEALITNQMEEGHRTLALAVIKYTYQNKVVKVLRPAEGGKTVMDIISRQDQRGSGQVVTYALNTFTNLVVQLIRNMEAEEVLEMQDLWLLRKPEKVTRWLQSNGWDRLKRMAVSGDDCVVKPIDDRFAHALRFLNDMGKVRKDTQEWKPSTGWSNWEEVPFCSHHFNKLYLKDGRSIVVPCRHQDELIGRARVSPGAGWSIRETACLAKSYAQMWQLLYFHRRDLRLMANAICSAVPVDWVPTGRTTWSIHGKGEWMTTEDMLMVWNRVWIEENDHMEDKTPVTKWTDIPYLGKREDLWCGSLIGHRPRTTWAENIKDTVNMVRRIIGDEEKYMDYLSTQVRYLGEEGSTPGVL

`Nc1ncnc2c1ncn2[C@@H]1O[C@H](C[C@@H](N)CC[C@H](N)C(=O)O)[C@@H](O)[C@H]1O` [西奈芬净, Sinefungin]: the IC50 (usually the midpoint of a concentration-inhibition curve) in series [1] is 1.18 µM.
`NC(=O)c1ncn([C@@H]2O[C@H](CO)[C@@H](O)[C@H]2O)n1` [利巴韦林, reference compound]: the EC50 (in general, the concentration giving half of the maximal effect) was 47.5 ± 4.73 µM in the series with ZIKV SZ-WIV01 [2] and 58.8 ± 1.86 µM with ZIKV MR766. The anti-Zika virus activity entry in the series with Zika virus [寨卡病毒] [3] is “具有抗寨卡病毒活性”.
With `Cc1c(-c2ccc(-c3ccccc3F)cc2)nc2ccc(F)cc2c1C(=O)O` [Brequinar], the anti-Zika virus activity result in the series on Zika virus [寨卡病毒] [3] is recorded as “具有抗寨卡病毒活性”.
With `Nc1ncnc2c([C@@H]3N[C@H](CO)[C@@H](O)[C@H]3O)c[nH]c12` [BCX4430], the “inhibition of viral RNA polymerase function” value in series [4] was “能抑制病毒RNA聚合酶的功能”.
Turning to `Cc1ccc(C(=O)Nc2ccc(S(=O)(=O)O)c3cc(S(=O)(=O)O)cc(S(=O)(=O)O)c23)cc1NC(=O)c1cccc(NC(=O)Nc2cccc(C(=O)Nc3cc(C(=O)Nc4ccc(S(=O)(=O)O)c5cc(S(=O)(=O)O)cc(S(=O)(=O)O)c45)ccc3C)c2)c1` [苏拉明], the “effect on Zika virus binding and attachment to host cells” value in the series on Zika virus [寨卡病毒] [5] is “可以影响寨卡病毒的结合以及与宿主细胞的附着”.
Take `Nc1ncnc2c1ncn2[C@@H]1O[C@H](CSCC[C@H](N)C(=O)O)[C@@H](O)[C@H]1O` [S-腺苷基-同型半胱氨酸, S-adenosyl-L-homocysteine]: the IC50 in [1] was 0.43 µM.
As to `COc1cc(O)c(C(CC(C)C)c2c(O)cc(OC)c(C(=O)C(C)C)c2O)c(O)c1C(=O)C(C)C` [大叶桉酮G, Eucalyprobusone G], in the series with ZIKV SZ-WIV01 [2] (Vero cells, 3.125-25 μM, vs DMSO), the “inhibition of ZIKV-induced plaque formation” value is recorded as “以剂量依赖方式抑制ZIKV感染诱导的噬斑形成”. For the same compound, the EC50 was determined as 10.1 ± 3.84 µM in the series on ZIKV SZ-WIV01 [2] and 0.43 ± 0.08 µM with ZIKV MR766. Further, the “anti-Zika virus activity compared with positive control ribavirin” value in the series on ZIKV SZ-WIV01 [2] (plaque assay, ZIKV SZ-WIV01 and ZIKV MR766) is recorded as “优于阳性对照药利巴韦林; also recorded: 显著高于阳性对照药利巴韦林”. Further, the selectivity ratio in series [6] (vero cells, Vero CC50 relative to anti-ZIKV EC50, strain not stated, read-out: therapeutic index) is greater than 49.5. Besides, in series [6] (MTT, Vero cells, 4 days), the cytotoxic concentration (CC50) (in general, the concentration that lowers cell viability or growth by half) at 96 h was greater than 500 µM. In the series on Vero cells [Vero细胞], the therapeutic index is on record as greater than 49.5. Moreover, the “inhibition of ZIKV RNA production” value with ZIKV SZ-WIV01 [7] is on record as “以剂量依赖性的方式抑制ZIKV RNA的产生”. For the same compound, in series [8] (ZIKV MR766, 2 μM or higher), the “expression of ZIKV E protein (Western blot)” value is “几乎完全抑制了E蛋白的表达”. The “expression of ZIKV E protein (Western blot), concentration dependence” value in [8] (ZIKV MR766, 0.08-50 μM) is listed as “随着大叶桉酮G浓度的增加,ZIKV E蛋白的表达逐渐被抑制”. The “ZIKV E protein positive cells (immunofluorescence)” value in the series with ZIKV SZ-WIV01 [9] is reported as “ZIKV E蛋白阳性细胞显著减少”. Besides, the “inhibition of ZIKV replication” value in the series on ZIKV [10] and with ZIKV [11] was “以剂量依赖型方式抑制两种人源细胞中ZIKV的复制” each time. Besides, in the series with ZIKV SZ-WIV01 [12], the “ZIKV adsorption (binding) to host cells” value is listed as “抑制了ZIKV的吸附; also recorded: 抑制ZIKV与宿主细胞的结合”. Also, the “internalization of ZIKV into host cells” value in the series with ZIKV [13] is “抑制ZIKV与宿主细胞的结合和内化”. Besides, the AXL expression entry in the series with AXL was “不影响AXL的表达”. For the same compound, the “stage of viral life cycle acted on” value in the series with ZIKV SZ-WIV01 [14] (added 0-12 h post infection) is given as “主要抑制ZIKV RNA的合成”. Besides, the “inhibition of ZIKV replication when added 6 h post infection” value in the series with ZIKV SZ-WIV01 [14] (supernatant at 24 h) is on record as “显著抑制了ZIKV的复制”. For the same compound, the “inhibition of NS5-induced increase in Gluc activity” value in series [15] (10 μmol/L) is recorded as “几乎完全抑制”. Moreover, the “inhibition of Gluc activity in NS5-expressing cells (RdRp activity)” value in series [15] (1.25-10 μM) was “以剂量依赖性的方式抑制了表达NS5的细胞中的荧光素酶Gluc的活性; also recorded: 可以抑制NS5中RdRp结构域的活性; also recorded: 呈剂量依赖型方式降低Gluc的活性”. Besides, the “effect on Gluc activity in cells expressing only Gluc” value in [16] is listed as “对荧光素酶的活性没有影响; also recorded: 对Gluc的活性没有影响”. Also, the “effect on NS5 expression” value with ZIKV NS5 is “不影响NS5的表达; also recorded: 对NS5的表达没有影响”.
With `COc1c(C)c2c(c(O)c1C/C=C(\C)CCC(=O)O)C(=O)OC2` [麦考酚酸], the anti-Zika virus activity result in the series on Zika virus [寨卡病毒] [3] was “具有抗寨卡病毒活性”.
